Laboratory results published in ChEMBL document CHEMBL1201862, “PubChem BioAssay data set” (2004).
Active and inactive are the calls of the source.

Assays:
[1] = alpha-synuclein stem-loop luciferase translation blockers – H4 neuroglioma cells, luminescence, confirmation (AID 1988); type: functional, cell-based
[2] = biological target: Luciferin 4-monooxygenase (Photinus pyralis, UniProt P08659); assay: inhibition of purified Photinus pyralis luciferase – biochemical, luminescence, dose response (AID 1891)
Sequence of Luciferin 4-monooxygenase (P08659 whole entry): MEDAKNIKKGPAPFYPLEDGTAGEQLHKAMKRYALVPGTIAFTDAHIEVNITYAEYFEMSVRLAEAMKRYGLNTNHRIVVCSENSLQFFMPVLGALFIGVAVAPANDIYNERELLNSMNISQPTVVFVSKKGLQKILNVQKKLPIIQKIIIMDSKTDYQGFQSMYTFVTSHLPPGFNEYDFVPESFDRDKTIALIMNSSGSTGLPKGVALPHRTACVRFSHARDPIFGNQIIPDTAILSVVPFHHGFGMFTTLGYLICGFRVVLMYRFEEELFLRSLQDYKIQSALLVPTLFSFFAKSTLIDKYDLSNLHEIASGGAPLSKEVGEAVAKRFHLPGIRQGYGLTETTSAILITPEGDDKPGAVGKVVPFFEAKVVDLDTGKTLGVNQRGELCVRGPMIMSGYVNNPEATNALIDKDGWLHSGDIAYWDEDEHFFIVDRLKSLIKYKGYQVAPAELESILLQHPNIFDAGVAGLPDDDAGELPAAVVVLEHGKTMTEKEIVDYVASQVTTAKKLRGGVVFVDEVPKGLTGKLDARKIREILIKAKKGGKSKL

[3] = Luminescence Cell-Based Dose Response HTS to Identify Inhibitors of 5'UTR Stem-Loop Driven Prion Protein mRNA Translation in H4 Neuroglioblastoma Cells. [Related pubchem assays: 1827 (Project Summary), 1813 (Primary HTS)]; type: functional
[4] = Luminescence Cell-Based Dose Confirmation HTS to Identify Inhibitors of Platelet Dense Granule Release. [Related pubchem assays: 1663 (Primary HTS), 1678 (Summary of Project)]; type: functional
[5] = Luminescence-based counterscreen assay for KLF5 inhibitors: dose response cell-based high throughput screening assay to identify cytotoxic compounds using the IEC-6 intestinal epithelial cell line. [Related pubchem assays: 1700 (Primary screen.), 1834 (Confirmation screen.), 1858 (Summary AID.), 1905 (Counterscreen.)]; type: functional
[6] = blockers of bursicon-stimulated LGR2 cAMP reporter – cell-based, HEK293, CRE-luciferase reporter, cherry pick, set 2, dose response (AID 743343); type: functional;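 also: transfected cells were stimulated with diluted bursicon conditioned medium after compound addition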
[7] = viability loss in HEK293 cells – cell-based, plate reader, cherry-picked samples, cytotoxicity control, dose response (AID 743446); type: functional
[8] = blockade of melanocortin 4 receptor signaling – cell-based, plate reader, cherry pick, counter-screen for LGR2 antagonist project, dose response (AID 743444); type: functional;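 also: transfected HEK 293 cells stimulated with alpha-MSH peptide; potency of inhibitors of the alpha-MSH evoked signal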
NS3 = NS3 (Hepatitis C virus, UniProt A3EZJ3); assay: PubChem AID 2173; parameters: species or system Hepacivirus hominis
Sequence of NS3 (A3EZJ3 whole entry): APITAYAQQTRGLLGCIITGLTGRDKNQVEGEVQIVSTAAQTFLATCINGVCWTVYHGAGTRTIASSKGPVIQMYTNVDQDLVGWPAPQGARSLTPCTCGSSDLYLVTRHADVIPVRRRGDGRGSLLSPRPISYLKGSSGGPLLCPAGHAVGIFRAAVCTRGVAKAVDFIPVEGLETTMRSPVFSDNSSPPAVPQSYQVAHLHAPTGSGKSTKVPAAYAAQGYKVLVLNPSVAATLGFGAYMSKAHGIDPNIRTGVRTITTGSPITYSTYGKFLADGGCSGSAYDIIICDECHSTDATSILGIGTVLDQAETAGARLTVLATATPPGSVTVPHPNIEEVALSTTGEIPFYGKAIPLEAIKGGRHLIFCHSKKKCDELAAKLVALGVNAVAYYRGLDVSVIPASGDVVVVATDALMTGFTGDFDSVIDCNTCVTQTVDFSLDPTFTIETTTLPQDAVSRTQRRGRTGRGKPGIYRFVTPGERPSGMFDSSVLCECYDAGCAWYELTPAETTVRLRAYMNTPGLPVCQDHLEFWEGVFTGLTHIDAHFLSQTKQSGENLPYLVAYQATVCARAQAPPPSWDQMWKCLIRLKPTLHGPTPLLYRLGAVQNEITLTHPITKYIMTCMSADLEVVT

[9] = biological target: Protein-tyrosine kinase 2-beta (Homo sapiens, UniProt Q14289);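 also: potency of inhibitors of PYK2 kinase phosphorylation of poly-GT substrate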
Sequence of Protein-tyrosine kinase 2-beta (Q14289 whole entry): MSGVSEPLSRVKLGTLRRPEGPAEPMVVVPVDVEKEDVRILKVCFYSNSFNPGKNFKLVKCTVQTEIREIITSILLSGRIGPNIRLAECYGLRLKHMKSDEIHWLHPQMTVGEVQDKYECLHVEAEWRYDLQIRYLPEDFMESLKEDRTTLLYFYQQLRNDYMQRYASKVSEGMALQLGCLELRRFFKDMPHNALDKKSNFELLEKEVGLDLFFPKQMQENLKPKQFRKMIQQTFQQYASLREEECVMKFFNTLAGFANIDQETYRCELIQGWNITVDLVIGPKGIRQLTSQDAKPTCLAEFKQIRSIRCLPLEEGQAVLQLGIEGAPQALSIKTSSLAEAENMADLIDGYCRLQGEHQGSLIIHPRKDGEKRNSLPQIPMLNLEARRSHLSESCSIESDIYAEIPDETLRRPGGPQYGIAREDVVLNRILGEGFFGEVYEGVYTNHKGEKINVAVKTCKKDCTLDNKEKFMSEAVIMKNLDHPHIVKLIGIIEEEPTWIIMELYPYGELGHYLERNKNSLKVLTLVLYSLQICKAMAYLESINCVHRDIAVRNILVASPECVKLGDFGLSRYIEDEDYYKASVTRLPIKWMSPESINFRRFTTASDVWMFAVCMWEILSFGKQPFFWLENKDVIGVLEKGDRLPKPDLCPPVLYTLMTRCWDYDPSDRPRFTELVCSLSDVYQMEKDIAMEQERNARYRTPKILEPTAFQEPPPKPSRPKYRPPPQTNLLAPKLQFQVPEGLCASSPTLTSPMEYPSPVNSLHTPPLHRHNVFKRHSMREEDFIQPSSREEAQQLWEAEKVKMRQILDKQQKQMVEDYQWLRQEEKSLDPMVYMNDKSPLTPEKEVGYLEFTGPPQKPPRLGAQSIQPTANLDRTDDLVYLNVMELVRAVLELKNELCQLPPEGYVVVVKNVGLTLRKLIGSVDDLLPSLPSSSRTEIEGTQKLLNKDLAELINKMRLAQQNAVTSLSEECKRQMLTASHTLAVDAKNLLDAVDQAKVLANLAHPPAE

[10] = biological target: Dual specificity tyrosine-phosphorylation-regulated kinase 1A (Rattus norvegicus, UniProt Q63470); type: biochemical, Homo sapiens
[11] = antiviral protection against BTV-induced cell death – arbovirus, BSR cells, confirmation (AID 1250); type: functional;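 also: protection from viral cytopathic effect measured as cell viability by ATP luminescence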
[12] = biological target: T1, Low molecular weight phosphotyrosine protein phosphatase (Homo sapiens, UniProt P24666); type: functional; conditions: read-out: IC50_Mean
T1 sequence (P24666 whole entry): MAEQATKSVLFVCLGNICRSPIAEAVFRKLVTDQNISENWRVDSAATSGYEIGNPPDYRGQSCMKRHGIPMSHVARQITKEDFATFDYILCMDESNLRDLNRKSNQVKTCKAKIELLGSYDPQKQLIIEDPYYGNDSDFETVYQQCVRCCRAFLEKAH

[13] = biological target: T1, Low molecular weight phosphotyrosine protein phosphatase; type: functional; conditions: read-out: IC50_Mean; remark: listed apart in the source
[14] = biological target: T2, Heat shock factor protein 1 (Mus musculus, UniProt P38532); assay: decrease of HSF1-responsive luciferase luminescence – cell-based, NIH3T3, dose retest, confirmation (AID 2382); type: functional;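 also: NIH3T3 fibroblasts with HSF1-driven luciferase reporter stressed by proteasome inhibitor MG132; luminescence from HSF1-driven luciferase expression after 8 hours of MG132 stress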
T2 sequence (P38532 whole entry): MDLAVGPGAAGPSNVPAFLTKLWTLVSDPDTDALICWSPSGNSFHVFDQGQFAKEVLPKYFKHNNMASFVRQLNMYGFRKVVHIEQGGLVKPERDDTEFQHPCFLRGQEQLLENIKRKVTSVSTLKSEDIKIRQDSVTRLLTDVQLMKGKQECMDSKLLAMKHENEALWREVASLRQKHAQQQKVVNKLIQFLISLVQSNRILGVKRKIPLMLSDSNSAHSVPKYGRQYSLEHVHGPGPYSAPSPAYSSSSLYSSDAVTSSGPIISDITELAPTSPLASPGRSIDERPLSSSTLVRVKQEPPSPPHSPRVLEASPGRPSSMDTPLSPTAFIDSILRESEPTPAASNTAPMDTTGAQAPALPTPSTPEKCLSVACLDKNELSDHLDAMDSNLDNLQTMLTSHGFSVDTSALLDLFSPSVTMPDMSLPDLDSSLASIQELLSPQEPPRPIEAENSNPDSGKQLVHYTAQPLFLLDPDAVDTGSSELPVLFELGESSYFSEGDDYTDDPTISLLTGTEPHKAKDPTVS

cells [15] = type: functional, cell-based
Paired box protein Pax-8 = Paired box protein Pax-8 (Homo sapiens, UniProt Q06710); assay: PAX8 transcriptional activity inhibition in RMG-I – RMG-I cells, luciferase, cherry-pick, dose response (AID 687027); type: functional, cell-based;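 also: luciferase reporter driven by Pax8 target thyroperoxidase promoter measured by SteadyGlo luminescence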
Sequence of Paired box protein Pax-8 (Q06710 whole entry, the tested form may be a part): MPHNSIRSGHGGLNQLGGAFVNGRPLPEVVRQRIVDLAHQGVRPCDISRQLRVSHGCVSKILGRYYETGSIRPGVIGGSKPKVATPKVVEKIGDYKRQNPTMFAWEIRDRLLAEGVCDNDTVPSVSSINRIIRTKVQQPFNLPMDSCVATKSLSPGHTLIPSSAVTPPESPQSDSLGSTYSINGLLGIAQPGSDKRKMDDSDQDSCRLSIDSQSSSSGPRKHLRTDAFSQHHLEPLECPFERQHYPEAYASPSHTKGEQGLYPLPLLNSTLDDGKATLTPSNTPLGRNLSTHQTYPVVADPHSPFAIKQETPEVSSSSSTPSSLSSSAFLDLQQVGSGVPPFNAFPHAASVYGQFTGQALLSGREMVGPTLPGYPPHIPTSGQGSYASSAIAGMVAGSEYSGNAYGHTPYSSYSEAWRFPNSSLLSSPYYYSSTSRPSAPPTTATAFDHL

[16] = luciferase reporter signal reduction – luminescence, H4-C neuroglioblastoma cells, dose response (AID 2458); type: functional, cell-based;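 also: H4 neuroglioblastoma cells stably carrying a luciferase reporter gene fusion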
[17] = biological target: T3, Nuclear receptor subfamily 0 group B member 1 (Homo sapiens, UniProt P51843); type: functional, cell-based;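 also: HEK293T cells transfected with SF-1 and DAX-1 plus StAR promoter luciferase reporter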
T3 sequence (P51843 whole entry): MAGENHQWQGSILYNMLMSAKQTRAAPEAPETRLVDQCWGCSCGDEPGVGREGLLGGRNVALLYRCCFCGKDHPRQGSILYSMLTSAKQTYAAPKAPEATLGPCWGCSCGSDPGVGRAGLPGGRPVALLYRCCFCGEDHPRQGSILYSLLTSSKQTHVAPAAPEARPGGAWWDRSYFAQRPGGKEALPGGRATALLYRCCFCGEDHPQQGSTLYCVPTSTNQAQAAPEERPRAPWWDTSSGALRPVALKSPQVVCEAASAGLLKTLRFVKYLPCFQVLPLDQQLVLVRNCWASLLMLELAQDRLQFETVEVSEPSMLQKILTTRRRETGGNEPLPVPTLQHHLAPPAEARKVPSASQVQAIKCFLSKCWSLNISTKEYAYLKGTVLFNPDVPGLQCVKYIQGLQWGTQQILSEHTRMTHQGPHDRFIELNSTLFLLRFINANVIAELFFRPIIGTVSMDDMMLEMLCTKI

[18] = luciferase reporter signal suppression in cells – H4 neuroglioma cells, luminescence, dose response (AID 1990); type: functional, cell-based
[19] = alpha-synuclein stem-loop translation blockers – luminescence, H4 neuroglioblastoma cells, dose confirmation, confirmation (AID 2454); type: functional, cell-based;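 also: H4 neuroglioblastoma cells carrying an alpha-synuclein 5'UTR luciferase reporter; potency for inhibition of the luciferase signal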
cells [20] = type: functional, cell-based; remark: listed apart in the source
Coagulation factor XII = biological target: T4, Coagulation factor XII (Homo sapiens, UniProt P00748); type: functional;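 also: activated factor XIIa alpha cleaving a fluorogenic AMC peptide substrate; inhibitor potency from loss of enzyme activity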
T4 sequence (P00748 whole entry): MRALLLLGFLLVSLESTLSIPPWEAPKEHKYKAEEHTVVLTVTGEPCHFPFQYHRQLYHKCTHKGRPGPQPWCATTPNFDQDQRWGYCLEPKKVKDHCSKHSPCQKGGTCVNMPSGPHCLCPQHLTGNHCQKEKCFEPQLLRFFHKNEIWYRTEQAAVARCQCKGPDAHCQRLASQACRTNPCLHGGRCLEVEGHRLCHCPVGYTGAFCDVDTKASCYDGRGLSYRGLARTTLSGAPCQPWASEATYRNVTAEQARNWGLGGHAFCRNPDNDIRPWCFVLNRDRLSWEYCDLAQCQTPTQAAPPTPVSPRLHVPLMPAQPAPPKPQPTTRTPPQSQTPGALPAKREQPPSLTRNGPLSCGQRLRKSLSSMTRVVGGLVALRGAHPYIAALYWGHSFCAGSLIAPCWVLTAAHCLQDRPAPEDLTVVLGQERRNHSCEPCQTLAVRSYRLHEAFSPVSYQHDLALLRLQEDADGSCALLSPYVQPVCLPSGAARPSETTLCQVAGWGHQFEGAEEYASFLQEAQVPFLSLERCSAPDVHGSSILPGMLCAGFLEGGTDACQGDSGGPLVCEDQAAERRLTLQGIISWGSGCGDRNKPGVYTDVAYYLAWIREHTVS

[21] = Luminescence Cell-Based Dose Confirmation HTS to Identify Inhibitors of Polyadenylation.; type: functional
Large T antigen = Large T antigen (Simian virus 40, UniProt P03070); type: functional, Betapolyomavirus macacae;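 also: Confirmatory-stage PubChem screen for compounds that inhibit SV40 T antigen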
Sequence of Large T antigen (P03070 whole entry): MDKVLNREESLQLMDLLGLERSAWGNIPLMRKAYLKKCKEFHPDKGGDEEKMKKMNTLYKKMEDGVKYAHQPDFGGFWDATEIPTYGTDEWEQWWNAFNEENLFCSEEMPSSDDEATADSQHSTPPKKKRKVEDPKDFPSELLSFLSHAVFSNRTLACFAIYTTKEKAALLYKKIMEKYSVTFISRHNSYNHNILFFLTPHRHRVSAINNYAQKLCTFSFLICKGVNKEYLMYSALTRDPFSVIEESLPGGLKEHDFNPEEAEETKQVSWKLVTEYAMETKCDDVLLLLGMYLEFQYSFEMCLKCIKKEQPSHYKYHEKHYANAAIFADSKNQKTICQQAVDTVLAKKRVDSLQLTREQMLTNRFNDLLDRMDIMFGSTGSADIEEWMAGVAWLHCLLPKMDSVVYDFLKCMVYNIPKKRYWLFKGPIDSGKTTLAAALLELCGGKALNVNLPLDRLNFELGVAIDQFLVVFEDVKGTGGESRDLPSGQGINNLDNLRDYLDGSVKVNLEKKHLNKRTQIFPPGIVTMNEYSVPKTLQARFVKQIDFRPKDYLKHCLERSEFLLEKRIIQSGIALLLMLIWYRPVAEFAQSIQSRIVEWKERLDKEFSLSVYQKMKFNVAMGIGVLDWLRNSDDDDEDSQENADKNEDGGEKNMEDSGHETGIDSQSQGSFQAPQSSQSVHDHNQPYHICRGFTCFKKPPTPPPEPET

In the case of O=C(Nc1cccc(O)c1)c1cc(-c2ccc3c(c2)OCO3)on1, the EC50 [1] is reported as 5.97 µM (active), the EC50 [2] is reported as 0.349 µM (active) and the EC50 [3] is reported as > 120 µM (not active). For the same molecule, the EC50 [4] was 1.71 µM (active), the IC50 [5] was > 39.8 µM (not active) and the AC50 [6] was 4.08 µM (active). For the same molecule, the AC50 [7] was 6.57 µM (active) and the AC50 [8] was 5.8 µM (active).
For CC(Oc1ccccc1)C(=O)Nc1oc(-c2ccco2)c(-c2ccco2)c1C#N (stereo not drawn), the IC50 (NS3) was 16.7 µM (not active).
With c1ccc(-c2nccc(-c3ccc(-n4cnc5ccccc54)cc3)n2)cc1 the IC50 [9] was 2.64 µM (active).
For N#Cc1c(C(F)(F)F)cc(-c2cccc(Cl)c2)nc1O, the AC50 [10] was 7.04 µM (active) and the IC50 [11] was 42.9 µM (active).
For CCCCOc1ccc(C2C(C(=O)c3ccc(C)o3)=C(O)C(=O)N2Cc2ccco2)cc1 (stereo not drawn), the IC50 [12] was 54.5 µM (inactive), the IC50 [13] was > 80 µM (inactive) and the IC50 (NS3) was 3.26 µM (active). For the same molecule, the EC50 [14] was 46.6 µM (active).
In the case of Cc1cc(C)c2nc(SCC(=O)N3CC(=O)Nc4ccccc43)c(C#N)cc2c1, the EC50 [1] is reported as < 0.1 µM (active), the EC50 (cells [15]) is reported as > 12 µM (not active) and the AC50 (Paired box protein Pax-8) is reported as 1.25 µM (active). The EC50 [3] was 0.217 µM (active), the EC50 [16] was 0.665 µM (active) and the IC50 [17] was > 67.5 µM (inactive). For the same molecule, the EC50 [18] was 0.13 µM (active), the EC50 [19] was > 12 µM (inconclusive) and the IC50 (cells [20]) was > 67.5 µM (inactive).
In the case of O=C(O)CN1C(=O)/C(=C/c2ccc(N3CCCCC3)o2)SC1=S, the IC50 (Coagulation factor XII) is reported as > 50 µM (inactive), the EC50 [21] is reported as 10.6 µM (active) and the IC50 (Large T antigen) is reported as 31.7 µM (active).
